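Values below derive from 48-hour exposures of cells grown in 96-well plates, with endpoints linearly interpolated between the two concentrations bracketing the appropriate inhibition level. The concentration for full growth arrest is given as TGI.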

Results on 19 molecules are retold here after PubChem BioAssay (NCI).

Common to all, as to assay: NCI-60 cell line screen, 48 h
In assay [1] the test system is 786-0 renal.
In assay [2] the test system is EKVX NSCLC.
The subject of assay [3] is NCI-H460 lung.
Assay [4] concerns COLO 205 colon.
The test system of assay [5] is U251 CNS.
Assay [6] concerns KM12 colon.
For assay [7], the system named is UO-31 renal.
In assay [8] the test system is SK-MEL-28 melanoma.
The test system of assay [9] is MOLT-4 leukemia.
The subject of assay [10] is ACHN renal.
Assay [11] deals with HOP-62 NSCLC.
In assay [12] the test system is T-47D breast.

As for `Cc1cccc(CC(Cc2c(C)cccc2C(=O)O)C(=O)O)c1` (stereo unspecified), the TGI in assay [1], in assay [2], in assay [3], in assay [4], in assay [5] and in assay [6] was > 100 µM throughout. Further, the TGI in [7], in assay [8], in [9], in assay [10] and in [11] was > 100 µM throughout.

As to `COc1ccc(C2Oc3cc(OC)c(O)c(C)c3[C@H]2C)cc1` (stereo partly specified), the TGI in [1], in [2], in assay [3], in assay [4], in [5] and in [6] was > 100 µM in each case. Also, the TGI was 78 µM in [7]; > 100 µM in [8]; 89.3 µM in [9]; > 100 µM in [10]; > 100 µM in assay [11].

With `c1ccc(C2=NOC3(c4ccccc4)SC4CCCCC4CN23)cc1` (stereo unspecified), the TGI was > 100 µM in assay [1]; > 100 µM in assay [2]; > 100 µM in [3]; 69.4 µM in assay [4]; 37.6 µM in [5]; 88.9 µM in assay [6]. In addition, the TGI is > 100 µM in [7]; > 100 µM in [8]; 51.3 µM in [9]; 70.9 µM in [10]; > 100 µM in [11].

As for `CC(=O)c1ccc2c(ccc(=O)n2C)c1`, the TGI in [1], in assay [2], in assay [3], in [4], in [5] and in assay [6] was > 100 µM in each case. The TGI in assay [8], in assay [9] and in assay [11] was > 100 µM throughout.

As to `CCCCSC1=N/C(=C\c2ccc(N(C)C)cc2)C(NN)=N1`, the TGI in assay [1], in assay [2], in assay [3], in assay [5], in assay [6] and in [12] was > 100 µM in each case. Also, the TGI in [8], in [9], in assay [10] and in assay [11] was > 100 µM each time.

As to `C=C1C(=O)OC2/C=C(/C)C3CC(O)C(C)(CC(OC(=O)/C(C)=C/C)C12)O3` (stereo unspecified), the TGI in [1] was 11.5 µM; in assay [2], 14.5 µM; in [3] it was 18.3 µM; in [4], 3.08 µM; in assay [5], 25.3 µM; in assay [6], 11.3 µM. The TGI is 18.3 µM in [7]; 8.35 µM in [8]; > 26.8 µM in assay [9]; 6.71 µM in assay [10]; 46.7 µM in assay [11].

Consider `C/C1=C/C(C)CC(C)OC(=O)C(C)NC(=O)C(Cc2ccc(O)c(I)c2)N(C)C(=O)C(C)NC(=O)C(C)C1` (stereo unspecified), for which the TGI came out at 3.79 µM in [1]; 12.8 µM in assay [3]; 0.892 µM in [5]; 24.3 µM in assay [6]; 29.1 µM in [12]; 23.7 µM in assay [9]. Moreover, the TGI in assay [11] is < 0.01 µM.

As to `O=C(NNC(c1ccccc1)C(F)(F)F)c1ccncc1` (stereo unspecified), the TGI in assay [1], in assay [2], in assay [3], in [4], in assay [5] and in [6] was > 100 µM each time. For the same molecule, the TGI in assay [8], in assay [9], in [10] and in [11] was > 100 µM each time.

For the molecule `NC(=O)NC(=O)c1cccc(CNc2ccc(C(=O)N[C@@H](CCC(=O)O)C(=O)O)cc2)n1`, the TGI in [1], in assay [2], in [3], in [4], in assay [5] and in [6] was > 100 µM in each case. For the same molecule, the TGI in assay [7], in [8], in assay [9] and in assay [10] was > 100 µM throughout.

`CC(C)(C)NC(=O)NC12CC3CC(CC(F)(C3)C1)C2`: the TGI in assay [1], in assay [2], in assay [3], in assay [4], in [5] and in assay [6] was > 100 µM throughout. Besides, the TGI in assay [7], in [8], in assay [9], in [10] and in assay [11] was > 100 µM throughout.

For `Clc1ccccc1C1=NN(c2ccccc2)C2c3ccccc3OCC12` (stereo unspecified), the TGI in assay [1], in [2], in assay [3], in [4], in assay [5] and in assay [6] was > 100 µM in each case. In addition, the TGI in [7], in [8], in assay [9], in [10] and in [11] was > 100 µM in each case.

As for `CCN1C[C@]2(C)CC[C@H](OC)C34C1C([C@H](OC(C)=O)[C@@H]32)[C@@]1(OC)C[C@H](OC)[C@H]2C[C@@H]4[C@@H]1[C@H]2O`, the TGI in assay [1], in assay [2], in assay [3], in assay [4], in assay [5] and in assay [6] was > 100 µM in each case. For the same molecule, the TGI in assay [7], in assay [8], in assay [9], in assay [10] and in [11] was > 100 µM in each case.

For the molecule `CS(=O)(=O)c1c(N)c2nc(Cl)cn2c2nc3ccccc3nc12`, the TGI in assay [1], in assay [2], in assay [3], in assay [4], in [5] and in [6] was > 100 µM each time. For the same molecule, the TGI in assay [7], in assay [8], in assay [9], in assay [10] and in [11] was > 100 µM each time.

`CN(CCO)c1nc(N)cc(=O)[nH]1`: the TGI in [1], in [2], in assay [3], in assay [4], in assay [5] and in assay [6] was > 100 µM each time. Further, the TGI in assay [7], in assay [8], in [9], in assay [10] and in assay [11] was > 100 µM each time.

For the molecule `CCN(CC)CCN1C(=O)c2c(c(-c3ccccc3)c3ccccc3c2-c2ccccc2)C1=O`, the TGI in [1], in assay [2], in [3], in [4], in [5] and in [6] was > 100 µM throughout. In addition, the TGI in assay [9], in assay [10] and in assay [11] was > 100 µM throughout.

`Cc1nc(C(N)=S)sc1C(/C=C/c1ccc(Cl)c(Cl)c1)=N/NC(C)(C)C`: the TGI in assay [1], in assay [2], in assay [3], in assay [4], in [5] and in [6] was > 100 µM each time. In addition, the TGI in assay [7] was > 100 µM; in assay [8], > 100 µM; in [9], 80.5 µM; in [10] it was > 100 µM.

With `CCOC(=O)Cc1csc2[n+]1C(=O)/C(=C\c1cccc(Cl)c1Cl)S2`, the TGI in assay [1] was found to be 31.2 µM; in [2], 50.7 µM; in assay [3], 45.8 µM; in assay [4], 20.7 µM; in [5], 64.6 µM; in assay [6], 33.5 µM. For the same molecule, the TGI in assay [7] was determined as 27.1 µM; in [8], 50.9 µM; in [9], 33.5 µM; in [10] it was 45.5 µM; in assay [11], 46.9 µM.

In the case of `Cc1oc(N)c(S(=O)(=O)c2ccc(Cl)cc2)c1C`, the TGI in assay [1], in assay [2], in assay [3], in [5], in [6] and in assay [7] was > 100 µM each time. For the same molecule, the TGI in [12], in assay [8], in assay [9] and in assay [10] was > 100 µM in each case.

For `C/C=C\C(CC(=O)NCCC1CN(S(=O)(=O)C(F)(F)F)c2ccccc21)CC(=O)OC` (stereo unspecified), the TGI was > 100 µM in assay [1]; > 100 µM in assay [2]; > 100 µM in [3]; 63 µM in assay [4]; > 100 µM in [5]; > 100 µM in assay [6]. Also, the TGI in assay [7], in assay [8], in assay [9], in [10] and in [11] was > 100 µM in each case.
